According to patent US20040058898A1, “Pharmaceutical composition for alleviating the violence of a mammal comprising nortestosterone derivatives” (priority 2002, published 2004):

Experiments:
Type in all cases: in vivo
[1] = test system: male ostriches which violently behaved, cried and did not take feed; assay: Alleviation of the violence and stimulation of the appetite in male ostrich; settings: for Alleviation of the violence and stimulation of the appetite: results compared with 17β-decanoate-4-estren-3-one / Alleviation of the violence and stimulation of the appetite according to administered amount: results compared with 17β-decanoate-4-estren-3-one: male ostrich; for Alleviation of the violence and stimulation of the appetite: results compared with 17β-decanoate-4-estren-3-one: same procedures as Experimental Example 1 (100 kg, intramuscular, 100 mg), Example 1 result: alleviated violence and stimulated appetite; for Alleviation of the violence and stimulation of the appetite according to administered amount: results compared with 17β-decanoate-4-estren-3-one: same procedures as Experimental Example 2 (100 kg, intramuscular, 10 to 1000 mg), Example 2 result: alleviated violence and stimulated appetite at every amount
Description: (§1) After administration, their behaviors and appetites were observed.

[2] = test system: male dogs which violently behaved, cried and did not take feed; assay: Alleviation of the violence and stimulation of the appetite in male dog; settings: male dogs 40 kg, 4, 8, 20, 40, 60, 80, 200 and 400 mg (0.1 to 10 mg per kg), Experimental Example 21, summary of Table 4
Description: as §1

[3] = test system: male horses which violently behaved, cried and did not take feed; assay: Alleviation of the violence and stimulation of the appetite in male horse; settings: male horses 200 kg, 20, 40, 100, 200, 300, 400, 1000 and 2000 mg (0.1 to 10 mg per kg), Experimental Example 25, summary of Table 8
Description: as §1

[4] = test system: male cats which violently behaved, cried and did not take feed; assay: Alleviation of the violence and stimulation of the appetite in male cat; settings: male cats 1 kg, 0.1, 0.2, 0.5, 1.0, 1.5, 2.0, 5.0 and 10 mg (0.1 to 10 mg per kg), Experimental Example 23, summary of Table 6
Description: as §1

[5] = test system: male goats which violently behaved, cried and did not take feed; assay: Alleviation of the violence and stimulation of the appetite in male goat; settings: male goats 40 kg, 4, 8, 20, 40, 60, 80, 200 and 400 mg (0.1 to 10 mg per kg), Experimental Example 27, summary of Table 10
Description: as §1

[6] = male ostriches 100 kg, 10, 20, 50, 100, 150, 200, 500 and 1000 mg (0.1 to 10 mg per kg), Experimental Example 2, summary of Table 2

Row | SMILES | Alleviation of the violence and stimulation of the appetite: results compared with 17β-decanoate-4-estren-3-one [1] | Alleviation of the violence and stimulation of the appetite according to administered amount: results compared with 17β-decanoate-4-estren-3-one [1] | other results
1 | CCCCCCCCCCCC(=O)O[C@H]1CC[C@H]2[C@@H]3CCC4=CC(=O)CC[C@@H]4[C@H]3CC[C@]12C [17β-dodecanoate-4-estren-3-one] | the same with the result of the experiment using 17β-decanoate-4-estren-3-one in Experimental Example 1 | the same with the result of the experiment using 17β-decanoate-4-estren-3-one in Experimental Example 2 | –
2 | C[C@]12CC[C@H]3[C@@H](CCC4=CC(=O)CC[C@@H]43)[C@@H]1CC[C@@H]2OC(=O)c1ccccc1 [17β-benzoate-4-estren-3-one] | the same with the result of the experiment using 17β-decanoate-4-estren-3-one in Experimental Example 1 | the same with the result of the experiment using 17β-decanoate-4-estren-3-one in Experimental Example 2 | –
3 | C[C@]12CC[C@H]3[C@@H](CCC4=CC(=O)CC[C@@H]43)[C@@H]1CC[C@@H]2OC(=O)CCC1CCCCC1 [17β-cyclohexylpropinoate-4-estren-3-one] | the same with the result of the experiment using 17β-decanoate-4-estren-3-one in Experimental Example 1 | – | –
4 | CCC(=O)O[C@H]1CC[C@H]2[C@@H]3CCC4=CC(=O)CC[C@@H]4[C@H]3CC[C@]12C [17β-propionate-4-estren-3-one] | the same with the result of the experiment using 17β-decanoate-4-estren-3-one in Experimental Example 1 | the same with the result of the experiment using 17β-decanoate-4-estren-3-one in Experimental Example 2 | –
5 | C[C@]12CC[C@H]3[C@@H](CCC4=CC(=O)CC[C@@H]43)[C@@H]1CC[C@@H]2OC(=O)C1CCCCC1 [17β-cyclohexanecarboxylate-4-estren-3-one] | the same with the result of the experiment using 17β-decanoate-4-estren-3-one in Experimental Example 1 | the same with the result of the experiment using 17β-decanoate-4-estren-3-one in Experimental Example 2 | –
6 | C[C@]12CC[C@H]3[C@@H](CCC4=CC(=O)CC[C@@H]43)[C@@H]1CC[C@@H]2OC(=O)CCc1ccccc1 [17β-phenpropionate-4-estren-3-one] | the same with the result of the experiment using 17β-decanoate-4-estren-3-one in Experimental Example 1 | the same with the result of the experiment using 17β-decanoate-4-estren-3-one in Experimental Example 2 | –
7 | C[C@]12CC[C@H]3[C@@H](CCC4=CC(=O)CC[C@@H]43)[C@@H]1CC[C@@H]2O [17β-hydroxy-4-estren-3-one] | the same with the result of the experiment using 17β-decanoate-4-estren-3-one in Experimental Example 1 | the same with the result of the experiment using 17β-decanoate-4-estren-3-one in Experimental Example 2 | appetite after intramuscular injection [1, 6]: appetite stimulated; feed intake after administration [1, 6]: increased feed intake; violence of estrus after intramuscular injection [1, 6]: violence of estrus alleviated; appetite after intramuscular injection [2]: appetite stimulated; feed intake after administration [2]: increased feed intake; violence of estrus after intramuscular injection [2]: violence of estrus alleviated; appetite after intramuscular injection [3]: appetite stimulated; feed intake after administration [3]: increased feed intake; violence of estrus after intramuscular injection [3]: violence of estrus alleviated; appetite after intramuscular injection [4]: appetite stimulated; feed intake after administration [4]: increased feed intake; violence of estrus after intramuscular injection [4]: violence of estrus alleviated; appetite after intramuscular injection [5]: appetite stimulated; feed intake after administration [5]: increased feed intake; violence of estrus after intramuscular injection [5]: violence of estrus alleviated
8 | CCCCCCOc1ccc(CCC(=O)O[C@H]2CC[C@H]3[C@@H]4CCC5=CC(=O)CC[C@@H]5[C@H]4CC[C@]23C)cc1 [17β-p-hexyloxyphenylpropionate-4-estren-3-one] | the same with the result of the experiment using 17β-decanoate-4-estren-3-one in Experimental Example 1 | the same with the result of the experiment using 17β-decanoate-4-estren-3-one in Experimental Example 2 | –
